How the values were obtained:
Assay in all cases: IA-DTB cysteine engagement, GluC + trypsin digest
Format in all cases: binding
Conditions in all cases: 22Rv1 cells
SF3B1 796 = target: T1, SF3B1 796 (Homo sapiens, UniProt O75533)
T1 construct: endogenous in cells; host or cells: 22Rv1
Description: (§1) Sample preparation: Cells (adherent: 15 cm dishes, suspension: 2 million cells/mL) were treated with electrophilic probes in situ for indicated times and concentrations, washed with ice-cold PBS, and flash frozen in liquid nitrogen. Cell pellets were lysed by sonication (8 pulses, 40% power) in 500 μL ice-cold PBS supplemented with cOmplete protease inhibitors (1 tablet/10 mL of PBS). Whole cell lysates protein content was measured using a standard DC protein assay (Bio-Rad) and 500 μL (2 mg/mL protein content) were treated with 5 μL of 10 mM 1A-DTB (in DMSO) for 1 h at ambient temperature with occasional vortexing. Samples were methanol-chloroform precipitated with the addition of 500 μL ice-cold MeOH and 200 μL CHCl3, vortexed, and centrifuged (10 min, 10,000 g). Without disrupting the protein disk, both top and bottom layers were aspirated and the protein disk was washed with 1 mL ice-cold MeOH and centrifuged (10 min, 10,000 g). The pellets were allowed to air dry, and then re-suspended in 90 μL buffer (9 M urea, 10 mM DTT, 50 mM TEAB pH 8.5). Samples were reduced by heating at 65 C for 20 minutes and water bath sonicated as needed to resuspend the protein pellets, followed by alkylation via addition of 10 μL (500 mM) iodoacetamide and incubated at 37 C for 30 min with shaking. Samples were briefly centrifuged, and probe sonicated once more to ensure complete resuspension, and then diluted with 300 μL buffer (50 mM TEAB pH 8.5) to reach final concentration of 2 M urea. […] Digested samples were then diluted with 300 μL wash buffer (50 mM TEAB pH 8.5, 150 mM NaCl, 0.2% NP-40) containing streptavidin-agarose beads (50 μL of 50% slurry in wash buffer) and were rotated at room temperature for 2 hours. Enriched samples were pelleted by centrifugation (2000 g, 2 min) and transferred to BioSpin columns and washed (3×1 mL wash buffer, 3×1 mL PBS, 3×1 mL water). Enriched peptides were eluted by 300 μL 50% acetonitrile with 0.1% formic acid and eluate was evaporated to dryness via speedvac. IA-DTB labeled and enriched peptides were resuspended in 100 μL EPPS buffer (200 mM, pH 8.0) with 30% acetonitrile, vortexed, and water bath sonicated. Samples were TMT labeled with 3 μL of corresponding TMT tag (5 mg tag resuspended in 256 μL acetonitrile), vortexed, and incubated at room temperature for 1 hour. TMT labeling was quenched with the addition of hydroxylamine (5 μL 5% solution in H2O) and incubated for 15 minutes at room temperature. Samples were then acidified with 5 μL formic acid, combined and dried using a SpeedVac. Samples were desalted via Sep-Pak and then high pH fractionated.
(§2) Data processing: Cysteine engagement ratios (probe vs DMSO) were calculated for each peptide-spectra match by dividing each TMT reporter ion intensity by the average intensity for the channels corresponding to DMSO treatment. Peptide-spectra matches were then grouped based on protein ID and residue number (e.g., PSME1 C22), […] ion intensities for the DMSO channels <10,000, coefficient of variation for DMSO channels >0.5, […] TMT reporter ion intensities were normalized to the median summed signal intensity across channels.
(§3) Samples were analyzed by liquid chromatography tandem mass-spectrometry using an Orbitrap Fusion mass spectrometer (Thermo Scientific) coupled to an UltiMate 3000 Series Rapid Separation LC system and autosampler (Thermo Scientific Dionex). The peptides were eluted onto a capillary column (75 μm inner diameter fused silica, packed with C18 (Waters, Acquity BEH C18, 1.7 μm, 25 cm)) or an EASY-Spray HPLC column (Thermo ES902, ES903) using an Acclaim PepMap 100 (Thermo 164535) loading column, and separated at a flow rate of 0.25 μL/min. Data was acquired using an MS3-based TMT method on Orbitrap Fusion or Orbitrap Eclipse Tribrid Mass Spectrometers. […]

SF3B1 965 = target: T2, SF3B1 965 (Homo sapiens, UniProt O75533+Q7RTV0)
T2 construct: Cysteine engagement data from 22Rv1 cells treated; endogenous in cells; host or cells: 22Rv1
Description: as §1, §2, §3

PSME1 101 = target: T3, PSME1 101 (Homo sapiens, UniProt Q06323)
T3 construct: stereoselectively engaged C22 of endogenous PSME1 in 22Rv1 cells; endogenous in cells; host or cells: 22Rv1
Description: as §1, §2, §3

PSME1 106 = target: T4, PSME1 106 (Homo sapiens, UniProt Q06323)
T4 construct: stereoselectively engaged C22 of endogenous PSME1 in 22Rv1 cells; endogenous in cells; host or cells: 22Rv1
Description: as §1, §2, §3

SF3B1 933 = target: T5, SF3B1 933 (Homo sapiens, UniProt O75533+Q7RTV0)
T5 construct: Cysteine engagement data from 22Rv1 cells treated; endogenous in cells; host or cells: 22Rv1
Description: as §1, §2, §3

SF3B1 1035 = target: T6, SF3B1 1035 (Homo sapiens, UniProt O75533+Q7RTV0)
T6 construct: Cysteine engagement data from 22Rv1 cells treated; endogenous in cells; host or cells: 22Rv1
Description: as §1, §2, §3

SF3B1 1123 = target: T7, SF3B1 1123 (Homo sapiens, UniProt O75533+Q7RTV0)
T7 construct: Cysteine engagement data from 22Rv1 cells treated; endogenous in cells; host or cells: 22Rv1
Description: as §1, §2, §3

SF3B1 795 = target: T8, SF3B1 795 (Homo sapiens, UniProt O75533)
T8 construct: endogenous in cells; host or cells: 22Rv1
Description: as §1, §2, §3

SF3B1 1244 = target: T9, SF3B1 1244 (Homo sapiens, UniProt O75533+Q7RTV0)
T9 construct: Cysteine engagement data from 22Rv1 cells treated; endogenous in cells; host or cells: 22Rv1
Description: as §1, §2, §3

PSME1 22 = target: T10, PSME1 22 (Homo sapiens, UniProt Q06323)
T10 construct: stereoselectively engaged C22 of endogenous PSME1 in 22Rv1 cells; endogenous in cells; host or cells: 22Rv1
Description: as §1, with “TMT labeling was quenched with the addition of hydroxylamine (5 μL 5% solution in H2O) and incubated for 15 minutes at room temperature. Samples were then acidified with 5 μL formic acid, combined and dried using a SpeedVac. Samples were desalted via Sep-Pak and then high pH fractionated.” left out
Data processing: Cysteine engagement ratios (probe vs DMSO) were calculated for each peptide-spectra match by dividing each TMT reporter ion intensity by the average intensity for the channels corresponding to DMSO treatment. […]
Samples were analyzed by liquid chromatography tandem mass-spectrometry using an Orbitrap Fusion mass spectrometer (Thermo Scientific) coupled to an UltiMate 3000 Series Rapid Separation LC system and autosampler (Thermo Scientific Dionex). […]

T3 sequence (Q06323 whole entry): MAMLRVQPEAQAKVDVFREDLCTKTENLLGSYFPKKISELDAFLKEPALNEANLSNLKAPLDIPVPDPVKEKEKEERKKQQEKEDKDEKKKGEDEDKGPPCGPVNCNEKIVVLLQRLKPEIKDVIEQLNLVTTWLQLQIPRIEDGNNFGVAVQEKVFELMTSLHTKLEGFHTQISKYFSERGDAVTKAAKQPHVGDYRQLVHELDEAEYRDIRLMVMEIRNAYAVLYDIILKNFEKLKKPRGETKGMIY
T10 sequence (Q06323 whole entry): as above
T4 sequence (Q06323 whole entry): as above
T7 sequence (O75533 whole entry): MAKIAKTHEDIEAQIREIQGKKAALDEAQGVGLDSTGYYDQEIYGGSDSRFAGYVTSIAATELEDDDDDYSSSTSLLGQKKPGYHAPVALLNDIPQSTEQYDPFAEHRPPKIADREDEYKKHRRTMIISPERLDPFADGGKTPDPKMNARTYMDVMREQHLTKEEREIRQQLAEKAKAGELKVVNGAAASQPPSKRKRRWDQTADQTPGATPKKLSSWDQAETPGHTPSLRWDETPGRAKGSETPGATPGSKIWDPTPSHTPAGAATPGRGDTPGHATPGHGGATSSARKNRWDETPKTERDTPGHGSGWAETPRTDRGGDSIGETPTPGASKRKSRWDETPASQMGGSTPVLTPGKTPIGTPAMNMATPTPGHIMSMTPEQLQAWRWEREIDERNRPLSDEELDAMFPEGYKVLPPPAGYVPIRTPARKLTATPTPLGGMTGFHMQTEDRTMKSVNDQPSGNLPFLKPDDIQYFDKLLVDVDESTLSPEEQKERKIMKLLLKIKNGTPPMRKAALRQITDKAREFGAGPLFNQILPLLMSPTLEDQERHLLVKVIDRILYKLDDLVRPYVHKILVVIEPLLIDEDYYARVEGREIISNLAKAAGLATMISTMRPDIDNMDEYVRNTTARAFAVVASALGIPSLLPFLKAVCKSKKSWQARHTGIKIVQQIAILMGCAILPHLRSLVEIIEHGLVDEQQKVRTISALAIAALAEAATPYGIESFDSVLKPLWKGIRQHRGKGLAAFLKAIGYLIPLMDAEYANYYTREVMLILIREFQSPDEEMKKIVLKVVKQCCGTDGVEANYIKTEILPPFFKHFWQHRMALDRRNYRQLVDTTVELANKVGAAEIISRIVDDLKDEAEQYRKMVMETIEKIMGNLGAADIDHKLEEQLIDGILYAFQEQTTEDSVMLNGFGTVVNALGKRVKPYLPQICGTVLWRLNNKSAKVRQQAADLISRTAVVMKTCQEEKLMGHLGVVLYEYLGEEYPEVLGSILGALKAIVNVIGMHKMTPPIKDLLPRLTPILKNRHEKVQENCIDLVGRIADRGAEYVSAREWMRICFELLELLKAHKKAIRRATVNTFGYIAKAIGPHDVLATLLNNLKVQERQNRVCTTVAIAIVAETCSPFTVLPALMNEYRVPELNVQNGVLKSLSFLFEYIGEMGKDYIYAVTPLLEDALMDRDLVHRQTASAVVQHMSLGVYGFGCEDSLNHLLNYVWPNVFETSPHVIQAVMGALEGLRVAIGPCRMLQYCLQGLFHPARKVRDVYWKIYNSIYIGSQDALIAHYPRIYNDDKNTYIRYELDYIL
T7 sequence (Q7RTV0 whole entry): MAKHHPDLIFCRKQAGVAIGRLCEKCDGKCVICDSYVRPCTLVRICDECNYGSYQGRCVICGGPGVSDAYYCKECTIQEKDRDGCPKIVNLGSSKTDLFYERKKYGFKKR
T7 sequence (Q15393 whole entry partner): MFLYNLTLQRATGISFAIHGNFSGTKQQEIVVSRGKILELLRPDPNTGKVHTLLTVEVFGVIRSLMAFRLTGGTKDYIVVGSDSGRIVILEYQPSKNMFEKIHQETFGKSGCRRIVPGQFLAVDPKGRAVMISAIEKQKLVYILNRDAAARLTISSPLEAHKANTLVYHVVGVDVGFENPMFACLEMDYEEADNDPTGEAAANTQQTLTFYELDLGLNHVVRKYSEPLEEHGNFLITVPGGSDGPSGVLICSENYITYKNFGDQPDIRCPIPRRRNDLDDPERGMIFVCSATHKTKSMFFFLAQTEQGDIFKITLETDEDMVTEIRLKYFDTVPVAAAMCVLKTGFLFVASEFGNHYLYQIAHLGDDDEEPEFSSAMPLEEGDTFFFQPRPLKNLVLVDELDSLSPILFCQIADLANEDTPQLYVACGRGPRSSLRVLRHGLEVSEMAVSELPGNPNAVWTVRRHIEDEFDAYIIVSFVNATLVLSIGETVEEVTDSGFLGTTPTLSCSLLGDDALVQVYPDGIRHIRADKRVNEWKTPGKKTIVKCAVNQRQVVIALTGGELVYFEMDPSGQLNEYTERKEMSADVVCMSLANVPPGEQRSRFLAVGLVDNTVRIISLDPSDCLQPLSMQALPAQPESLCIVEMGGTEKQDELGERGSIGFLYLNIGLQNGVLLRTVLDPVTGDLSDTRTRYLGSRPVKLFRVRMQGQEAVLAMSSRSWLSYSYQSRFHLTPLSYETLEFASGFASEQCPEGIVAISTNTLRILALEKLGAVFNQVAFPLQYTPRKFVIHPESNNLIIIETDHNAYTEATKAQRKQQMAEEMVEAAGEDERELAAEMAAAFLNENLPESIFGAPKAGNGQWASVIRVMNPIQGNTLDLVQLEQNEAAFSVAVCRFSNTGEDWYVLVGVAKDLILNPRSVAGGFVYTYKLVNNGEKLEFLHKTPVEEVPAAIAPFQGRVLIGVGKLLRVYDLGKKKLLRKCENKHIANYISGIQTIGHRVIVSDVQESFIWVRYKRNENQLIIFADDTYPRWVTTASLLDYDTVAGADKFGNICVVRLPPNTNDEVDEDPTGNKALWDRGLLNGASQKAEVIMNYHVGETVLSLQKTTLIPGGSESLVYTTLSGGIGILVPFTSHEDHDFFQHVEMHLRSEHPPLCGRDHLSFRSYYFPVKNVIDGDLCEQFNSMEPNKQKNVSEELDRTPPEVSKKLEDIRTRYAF
T7 sequence (Q9BWJ5 whole entry partner): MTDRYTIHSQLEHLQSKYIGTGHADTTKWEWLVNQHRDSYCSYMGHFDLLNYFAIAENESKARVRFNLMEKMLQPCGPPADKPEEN
T1 sequence (O75533 whole entry): as the sequence (O75533 whole entry) above
T2 sequence (O75533 whole entry): as above
T2 sequence (Q7RTV0 whole entry): as the sequence (Q7RTV0 whole entry) above
T2 sequence (Q15393 whole entry partner): as the sequence (Q15393 whole entry partner) above
T2 sequence (Q9BWJ5 whole entry partner): as the sequence (Q9BWJ5 whole entry partner) above
T9 sequence (O75533 whole entry): as the sequence (O75533 whole entry) above
T9 sequence (Q7RTV0 whole entry): as the sequence (Q7RTV0 whole entry) above
T9 sequence (Q15393 whole entry partner): as the sequence (Q15393 whole entry partner) above
T9 sequence (Q9BWJ5 whole entry partner): as the sequence (Q9BWJ5 whole entry partner) above
T5 sequence (O75533 whole entry): as the sequence (O75533 whole entry) above
T5 sequence (Q7RTV0 whole entry): as the sequence (Q7RTV0 whole entry) above
T5 sequence (Q15393 whole entry partner): as the sequence (Q15393 whole entry partner) above
T5 sequence (Q9BWJ5 whole entry partner): as the sequence (Q9BWJ5 whole entry partner) above
T8 sequence (O75533 whole entry): as the sequence (O75533 whole entry) above
T6 sequence (O75533 whole entry): as above
T6 sequence (Q7RTV0 whole entry): as the sequence (Q7RTV0 whole entry) above
T6 sequence (Q15393 whole entry partner): as the sequence (Q15393 whole entry partner) above
T6 sequence (Q9BWJ5 whole entry partner): as the sequence (Q9BWJ5 whole entry partner) above

| percent engagement relative to DMSO, SF3B1 796 (SF3B1 796; 5 uM) | percent engagement relative to DMSO, SF3B1 796 (SF3B1 796; 20 uM) | percent engagement relative to DMSO, SF3B1 965 (SF3B1 965; 5 uM) | percent engagement relative to DMSO, SF3B1 965 (SF3B1 965; 20 uM) | percent engagement relative to DMSO, PSME1 101 (PSME1 101; 5 uM) | percent engagement relative to DMSO, PSME1 101 (PSME1 101; 20 uM) | percent engagement relative to DMSO, PSME1 106 (PSME1 106; 5 uM) | percent engagement relative to DMSO, PSME1 106 (PSME1 106; 20 uM) | percent engagement relative to DMSO, SF3B1 933 (SF3B1 933; 5 uM) | percent engagement relative to DMSO, SF3B1 933 (SF3B1 933; 20 uM) | percent engagement relative to DMSO, SF3B1 1035 (SF3B1 1035; 5 uM) | percent engagement relative to DMSO, SF3B1 1035 (SF3B1 1035; 20 uM) | percent engagement relative to DMSO, SF3B1 1123 (SF3B1 1123; 5 uM) | percent engagement relative to DMSO, SF3B1 1123 (SF3B1 1123; 20 uM) | percent engagement relative to DMSO, SF3B1 795 (SF3B1 795; 5 uM) | percent engagement relative to DMSO, SF3B1 795 (SF3B1 795; 20 uM) | percent engagement relative to DMSO, SF3B1 1244 (SF3B1 1244; 5 uM) | percent engagement relative to DMSO, SF3B1 1244 (SF3B1 1244; 20 uM) | percent engagement relative to DMSO, PSME1 22 (PSME1 22; 5 uM) | percent engagement relative to DMSO, PSME1 22 (PSME1 22; 20 uM) | Structure (SMILES) |
| --- | --- | --- | --- | --- | --- | --- | --- | --- | --- | --- | --- | --- | --- | --- | --- | --- | --- | --- | --- | --- |
| −6.42% | −5.075% | −15.75% | −8.665% | −4.575% | −14.73% | −4.44% | −17.66% | −7.02% | −4.95% | −9.265% | −6.03% | 5.965% | 21.005% | −4.58% | −5.905% | −11.92% | −12.54% | −20.9% | −29.44% | C=CC(=O)N1[C@H](c2ccc3c(c2)OCO3)c2[nH]c3ccccc3c2C[C@H]1C(=O)N1CCOCC1 [WX-02-23, 1-((1R,3S)-1-(benzo[d][1,3]dioxol-S-yl)-3-(morpholine-4-carbonyl)-1,3,4,9-tetrahydro-2H-pyrido [3,4-b]indol-2-yl)prop-2-en-1-one] |
| 6.755% | 7.34% | 1.985% | 13.895% | −9.325% | −5.635% | −7.69% | −20.355% | 6.345% | 2.595% | 1.53% | 8.13% | 1.425% | 21.84% | 5.715% | 3.145% | −1.065% | −1.615% | −24.33% | −26.32% | C=CC(=O)N1[C@@H](c2ccc3c(c2)OCO3)c2[nH]c3ccccc3c2C[C@@H]1C(=O)N1CCOCC1 [WX-02-43, 1-((1S,3R)-1-(benzo[d][1,3]dioxol-5-yl)-3-(morpholine-4-carbonyl)-1,3,4,9-tetrahydro-2H-pyrido [3,4-b]indol-2-yl)prop-2-en-1-one] |

From patent publication US20250034216A1, “STEREOSELECTIVE COVALENT LIGANDS FOR ONCOGENIC AND IMMUNOLOGICAL PROTEINS” (The Scripps Research Institute, priority 2021, published 2025)
